Measured values taken from US11066445B2, “Immunomodulators acting as antagonists of PD-1” (Bristol-Myers Squibb Company, priority 2017, dated 2021).
Starred links: 1 amine or outer side, 2 acyl side, 3 side chain; linkers in the order of their positions; H or OH if unused. Positions of bridges follow the written chain, without caps; N, C: chain ends. Non-standard residues stand in square brackets, D forms with d. Residues, ends and D or L forms follow the SMILES beside them. *: point of attachment. X3 = O=C(O)CCCCCCCCCCCCCCCCC(=O)N[C@@H](CCC(=O)NCCCOCCOCCOCCCN*)C(=O)O; Trp(1-CH2CONHSO2Me) = CS(=O)(=O)NC(=O)Cn1cc(C[C@H](N)C(=O)O)c2ccccc21; X1 = O=C(O)CCCCCCCCCCCCCCC(=O)N[C@@H](CCC(=O)NCCCOCCOCCOCCCN*)C(=O)O; Trp(4-aza,1-CH2COOH) = N[C@@H](Cc1cn(CC(=O)O)c2cccnc12)C(=O)O; Trp(7-aza,1-CH2COOH) = N[C@@H](Cc1cn(CC(=O)O)c2ncccc12)C(=O)O; Trp(1-CH2CO2Me) = COC(=O)Cn1cc(C[C@H](N)C(=O)O)c2ccccc21; X2 = O=C(O)Cn1cc(C[C@@H](N[*:1])C(=O)[*:2])c2cccnc21; d(cisHyp) = O=C(O)[C@H]1C[C@@H](O)CN1; Hyp = O=C(O)[C@@H]1C[C@@H](O)CN1; NMeNle = CCCC[C@H](NC)C(=O)O; NMeA = CN[C@@H](C)C(=O)O; Dab = NCC[C@H](N)C(=O)O; Dap = NC[C@H](N)C(=O)O; Sar = CNCC(=O)O

Each compound was assayed against T1, PD-1-Ig binding to PD-L1-TVMV-His (PD-L1-His) (Homo sapiens, UniProt Q9NZQ7) (assay: PD-1/PD-L1 Homogenous Time-Resolved Fluorescence (HTRF) binding assay). Details: PD-1-Ig (20 nM) / PD-L1-His (10 nM); range classes; read-out: LE HTRF hPD1 hPDL1 IC50.
T1 construct: hPDL1(19-239)-TVMV-His; TVMV protease cleavage site (C); made in house; host or cells: HEK293T cells
T1 sequence (Q9NZQ7 with tags, fused parts or gaps): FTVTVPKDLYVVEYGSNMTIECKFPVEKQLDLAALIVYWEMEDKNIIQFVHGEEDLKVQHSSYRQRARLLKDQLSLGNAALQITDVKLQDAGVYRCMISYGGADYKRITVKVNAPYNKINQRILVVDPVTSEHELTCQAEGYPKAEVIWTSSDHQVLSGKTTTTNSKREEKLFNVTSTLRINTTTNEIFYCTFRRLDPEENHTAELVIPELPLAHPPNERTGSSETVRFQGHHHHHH
Description: Methods for Testing the Ability of Macrocyclic Peptides to Compete for the Binding of Pd-1 to Pd-L1 Using Homogenous Time-Resolved Fluorescence (HTRF) Binding Assays
The ability of the macrocyclic peptides of the present disclosure to bind to PD-L1 was investigated using a PD-1/PD-L1 Homogenous Time-Resolved Fluorescence (HTRF) binding assay.
Homogenous Time-Resolved Fluorescence (HTRF) Assays of Binding of Soluble PD-1 to Soluble PD-L1. Soluble PD-1 and soluble PD-L1 refers to proteins with carboxyl-end truncations that remove the transmembrane-spanning regions and are fused to heterologous sequences, specifically the Fc portion of the human immunoglobuling G sequence (Ig) or the hexahistidine epitope tag (His). All binding studies were performed in an HTRF assay buffer consisting of dPBS supplemented with 0.1% (w/v) bovine serum albumin and 0.05% (v/v) Tween-20. For the PD-1-Ig/PD-L1-His binding assay, inhibitors were pre-incubated with PD-L1-His (10 nM final) for 15 m in 4 μl of assay buffer, followed by addition of PD-1-Ig (20 nM final) in 1 μl of assay buffer and further incubation for 15 m. PD-L1 fusion proteins from either human, cynomologous macaques, mouse, or other species were used. HTRF detection was achieved using europium crypate-labeled anti-Ig monoclonal antibody (1 nM final) and allophycocyanin (APC) labeled anti-His monoclonal antibody (20 nM final). Antibodies were diluted in HTRF detection buffer and 5 μl was dispensed on top of binding reaction. The reaction was allowed to equilibrate for 30 minutes and signal (665 nm/620 nm ratio) was obtained using an EnVision fluorometer. Additional binding assays were established between PD-1-Ig/PD-L2-His (20 and 5 nM, respectively), CD80-His/PD-L1-Ig (100 and 10 nM, respectively) and CD80-His/CTLA4-Ig (10 and 5 nM, respectively). Binding/competition studies between biotinylated Compound No. 71 and human PD-L1-His were performed as follows. Macrocyclic peptide inhibitors were pre-incubated with PD-L1-His (10 nM final) for 60 minutes in 4 μl of assay buffer followed by addition of biotinylated Compound No. 71 (0.5 nM final) in 1 μl of assay buffer. Binding was allowed to equilibrate for 30 minutes followed by addition of europium crypated labeled Streptavidin (2.5 pM final) and APC-labeled anti-His (20 nM final) in 5 μl of HTRF buffer. The reaction was allowed to equilibrate for 30 m and signal (665 nm/620 nm ratio) was obtained using an EnVision fluorometer.
Recombinant Proteins. Carboxyl-truncated human PD-1 (amino acids 25-167) with a C-terminal human Ig epitope tag [hPD-1 (25-167)-3S-IG] and human PD-L1 (amino acids 18-239) with a C-terminal His epitope tag [hPD-L1(19-239)-tobacco vein mottling virus protease cleavage site (TVMV)-His] were expressed in HEK293T cells and purified sequentially by recombinant Protein A affinity chromatography and size exclusion chromatography. Human PD-L2-His (Sino Biologicals), CD80-His (Sino Biologicals), CTLA4-Ig (RnD Systems) were all obtained through commercial sources.
Ranges are as follows: A=0.010-0.060 μM; B=0.0011-0.009 μM; C=0.0003-0.0010 μM.

| SMILES | IC50 |
| --- | --- |
| CCCC[C@H]1C(=O)N(C)[C@@H](CCCC)C(=O)N[C@@H](CC(C)C)C(=O)N[C@H](C(=O)NCC(=O)N[C@@H](CC(=O)NCCCOCCOCCOCCCNC(=O)CC[C@H](NC(=O)CCCCCCCCCCCCCCCCC(=O)O)C(=O)O)C(=O)O)CSCC(=O)N[C@@H](Cc2ccc(O)cc2)C(=O)N(C)[C@@H](C)C(=O)N[C@@H](CC(N)=O)C(=O)N2CCC[C@H]2C(=O)N[C@@H](CN)C(=O)N[C@@H](CC(C)C)C(=O)N2C[C@H](O)C[C@H]2C(=O)N[C@@H](Cc2c[nH]c3ccccc23)C(=O)N[C@@H](CCN)C(=O)N[C@H](Cc2cn(CC(=O)O)c3ncccc23)C(=O)N1C [Example 14] ({CH2CO}-Y[NMeA]NP[Dap]L[Hyp]W[Dab][X2][NMeNle][NMeNle]LCGD(X3)-OH; thioether N-14) | 10 to 60 nM |
| CCCC[C@H]1C(=O)N(C)[C@@H](CCCC)C(=O)N[C@@H](CC(C)C)C(=O)N[C@H](C(=O)NCC(=O)N[C@@H](CC(=O)NCCCOCCOCCOCCCNC(=O)CC[C@H](NC(=O)CCCCCCCCCCCCCCC(=O)O)C(=O)O)C(=O)O)CSCC(=O)N[C@@H](Cc2ccc(O)cc2)C(=O)N(C)[C@@H](C)C(=O)N[C@@H](CC(N)=O)C(=O)N2CCC[C@H]2C(=O)N[C@@H](CN)C(=O)N[C@@H](CC(C)C)C(=O)N2C[C@H](O)C[C@H]2C(=O)N[C@@H](Cc2c[nH]c3ccccc23)C(=O)N[C@@H](CCN)C(=O)N[C@@H](Cc2cn(CC(=O)O)c3ncccc23)C(=O)N1C [Example 19] ({CH2CO}-Y[NMeA]NP[Dap]L[Hyp]W[Dab][Trp(7-aza,1-CH2COOH)][NMeNle][NMeNle]LCGD(X1)-OH; thioether N-14) | 1.1 to 9 nM |
| CCCC[C@H]1C(=O)N(C)[C@@H](CCCC)C(=O)N[C@@H](CC(C)C)C(=O)N[C@H](C(=O)NCC(=O)N[C@@H](CC(=O)NCCCOCCOCCOCCCNC(=O)CC[C@H](NC(=O)CCCCCCCCCCCCCCC(=O)O)C(=O)O)C(=O)O)CSCC(=O)N[C@@H](Cc2ccc(O)cc2)C(=O)N(C)[C@@H](C)C(=O)N[C@@H](CC(N)=O)C(=O)N2CCC[C@H]2C(=O)N[C@@H](CN)C(=O)N[C@@H](CC(C)C)C(=O)N2C[C@H](O)C[C@H]2C(=O)N[C@@H](Cc2c[nH]c3ccccc23)C(=O)N[C@@H](CCN)C(=O)N[C@@H](Cc2cn(CC(=O)O)c3cccnc23)C(=O)N1C [Example 18] ({CH2CO}-Y[NMeA]NP[Dap]L[Hyp]W[Dab][Trp(4-aza,1-CH2COOH)][NMeNle][NMeNle]LCGD(X1)-OH; thioether N-14) | 10 to 60 nM |
| CCCC[C@H]1C(=O)N(C)[C@@H](CCCC)C(=O)N[C@@H](CC(C)C)C(=O)N[C@H](C(=O)NCC(=O)N[C@@H](CC(=O)NCCCOCCOCCOCCCNC(=O)CC[C@H](NC(=O)CCCCCCCCCCCCCCCCC(=O)O)C(=O)O)C(=O)O)CSCC(=O)N[C@@H](Cc2ccc(O)cc2)C(=O)N(C)[C@@H](C)C(=O)N[C@@H](CC(N)=O)C(=O)N(C)CC(=O)N[C@@H](CN)C(=O)N[C@@H](CC(C)C)C(=O)N2C[C@H](O)C[C@@H]2C(=O)N[C@@H](Cc2c[nH]c3ccccc23)C(=O)N[C@@H](CCN)C(=O)N[C@@H](Cc2cn(CC(=O)OC)c3ccccc23)C(=O)N1C [Example 10] ({CH2CO}-Y[NMeA]N[Sar][Dap]L[d(cisHyp)]W[Dab][Trp(1-CH2CO2Me)][NMeNle][NMeNle]LCGD(X3)-OH; thioether N-14) | 1.1 to 9 nM |
| CCCC[C@H]1C(=O)N(C)[C@@H](CCCC)C(=O)N[C@@H](CC(C)C)C(=O)N[C@H](C(=O)NCC(=O)N[C@@H](CC(=O)NCCCOCCOCCOCCCNC(=O)CC[C@H](NC(=O)CCCCCCCCCCCCCCC(=O)O)C(=O)O)C(=O)O)CSCC(=O)N[C@@H](Cc2ccc(O)cc2)C(=O)N(C)[C@@H](C)C(=O)N[C@@H](CC(N)=O)C(=O)N2CCC[C@H]2C(=O)N[C@@H](CN)C(=O)N[C@@H](CC(C)C)C(=O)N2C[C@H](O)C[C@H]2C(=O)N[C@@H](Cc2c[nH]c3ccccc23)C(=O)N[C@@H](CCN)C(=O)N[C@@H](Cc2cn(CC(=O)NS(C)(=O)=O)c3ccccc23)C(=O)N1C [Example 15] ({CH2CO}-Y[NMeA]NP[Dap]L[Hyp]W[Dab][Trp(1-CH2CONHSO2Me)][NMeNle][NMeNle]LCGD(X1)-OH; thioether N-14) | 1.1 to 9 nM |
| CCCC[C@H]1C(=O)N(C)[C@@H](CCCC)C(=O)N[C@@H](CC(C)C)C(=O)N[C@H](C(=O)NCC(=O)N[C@@H](CC(=O)NCCCOCCOCCOCCCNC(=O)CC[C@H](NC(=O)CCCCCCCCCCCCCCCCC(=O)O)C(=O)O)C(=O)O)CSCC(=O)N[C@@H](Cc2ccc(O)cc2)C(=O)N(C)[C@@H](C)C(=O)N[C@@H](CC(N)=O)C(=O)N(C)CC(=O)N[C@@H](CN)C(=O)N[C@@H](CC(C)C)C(=O)N2C[C@H](O)C[C@@H]2C(=O)N[C@@H](Cc2c[nH]c3ccccc23)C(=O)N[C@@H](CCN)C(=O)N[C@@H](Cc2cn(CC(=O)O)c3cccnc23)C(=O)N1C [Example 8] ({CH2CO}-Y[NMeA]N[Sar][Dap]L[d(cisHyp)]W[Dab][Trp(4-aza,1-CH2COOH)][NMeNle][NMeNle]LCGD(X3)-OH; thioether N-14) | 1.1 to 9 nM |

Continued, values first:

| IC50 | SMILES |
| --- | --- |
| 0.3 to 1 nM | CCCC[C@H]1C(=O)N(C)[C@@H](CCCC)C(=O)N[C@@H](CC(C)C)C(=O)N[C@H](C(=O)NCC(=O)N[C@@H](Cc2cn(CCOCCOCCOCCOCCOCCOCCOCCOCCOCCOCCOCCNC(=O)CCC(NC(=O)CCCCCCCCCCCCCCCCC(=O)O)C(=O)O)nn2)C(=O)O)CSCC(=O)N[C@@H](Cc2ccc(O)cc2)C(=O)N(C)[C@@H](C)C(=O)N[C@@H](CC(N)=O)C(=O)N2CCC[C@H]2C(=O)N[C@@H](CN)C(=O)N[C@@H](CC(C)C)C(=O)N2C[C@H](O)C[C@H]2C(=O)N[C@@H](Cc2c[nH]c3ccccc23)C(=O)N[C@@H](CCN)C(=O)N[C@@H](Cc2cn(CC(=O)O)c3ccc(OC)cc23)C(=O)N1C (stereo partly drawn) [Example 27] |
| 1.1 to 9 nM | CCCC[C@H]1C(=O)N(C)[C@@H](CCCC)C(=O)N[C@@H](CC(C)C)C(=O)N[C@H](C(=O)NCC(=O)N[C@@H](Cc2cn(CCOCCOCCOCCOCCOCCOCCOCCOCCOCCOCCOCCNC(=O)CC[C@H](NC(=O)CCCCCCCCCCCCCCCCC(=O)O)C(=O)O)nn2)C(=O)O)CSCC(=O)N[C@@H](Cc2ccc(O)cc2)C(=O)N(C)[C@@H](C)C(=O)N[C@@H](CC(N)=O)C(=O)N2CCC[C@H]2C(=O)N[C@@H](CN)C(=O)N[C@@H](CC(C)C)C(=O)N2C[C@H](O)C[C@H]2C(=O)N[C@@H](Cc2c[nH]c3ccccc23)C(=O)N[C@@H](CCN)C(=O)N[C@@H](Cc2cn(CC(=O)NS(C)(=O)=O)c3ccccc23)C(=O)N1C [Example 30] |
| 10 to 60 nM | CCCC[C@H]1C(=O)N(C)[C@@H](CCCC)C(=O)N[C@@H](CC(C)C)C(=O)N[C@H](C(=O)NCC(=O)N[C@@H](CC(=O)NCCCOCCOCCOCCCNC(=O)CC[C@H](NC(=O)CCCCCCCCCCCCCCC(=O)O)C(=O)O)C(=O)O)CSCC(=O)N[C@@H](Cc2ccc(O)cc2)C(=O)N(C)[C@@H](C)C(=O)N[C@@H](CC(N)=O)C(=O)N2CCC[C@H]2C(=O)N[C@@H](CN)C(=O)N[C@@H](CC(C)C)C(=O)N2C[C@H](O)C[C@H]2C(=O)N[C@@H](Cc2c[nH]c3ccccc23)C(=O)N[C@@H](CCN)C(=O)N[C@H](Cc2cn(CC(=O)O)c3ncccc23)C(=O)N1C [Example 20] ({CH2CO}-Y[NMeA]NP[Dap]L[Hyp]W[Dab][X2][NMeNle][NMeNle]LCGD(X1)-OH; thioether N-14) |
